pIC50: −log10 of the molar value. Activity calls are given as the source filed them. The rule behind the calls is not given here.
How the values were obtained:
K562 = test: Antiproliferative activity against human K562 cells
THP-1 = test: Antiproliferative activity against human THP-1 cells
HEL = test: Antiproliferative activity against HEL cells; conditions: Homo sapiens
[1] = target: T1, Signal transducer and activator of transcription 1-alpha/beta (Homo sapiens) (UniProt P42224); test: Inhibition of STAT1 phosphorylation in HEL cells at 1 uM pretreated with momelotinib followed by compound addition and measured after 24 hrs by Western blotting analysis; type: cell-based
T1 sequence (whole entry): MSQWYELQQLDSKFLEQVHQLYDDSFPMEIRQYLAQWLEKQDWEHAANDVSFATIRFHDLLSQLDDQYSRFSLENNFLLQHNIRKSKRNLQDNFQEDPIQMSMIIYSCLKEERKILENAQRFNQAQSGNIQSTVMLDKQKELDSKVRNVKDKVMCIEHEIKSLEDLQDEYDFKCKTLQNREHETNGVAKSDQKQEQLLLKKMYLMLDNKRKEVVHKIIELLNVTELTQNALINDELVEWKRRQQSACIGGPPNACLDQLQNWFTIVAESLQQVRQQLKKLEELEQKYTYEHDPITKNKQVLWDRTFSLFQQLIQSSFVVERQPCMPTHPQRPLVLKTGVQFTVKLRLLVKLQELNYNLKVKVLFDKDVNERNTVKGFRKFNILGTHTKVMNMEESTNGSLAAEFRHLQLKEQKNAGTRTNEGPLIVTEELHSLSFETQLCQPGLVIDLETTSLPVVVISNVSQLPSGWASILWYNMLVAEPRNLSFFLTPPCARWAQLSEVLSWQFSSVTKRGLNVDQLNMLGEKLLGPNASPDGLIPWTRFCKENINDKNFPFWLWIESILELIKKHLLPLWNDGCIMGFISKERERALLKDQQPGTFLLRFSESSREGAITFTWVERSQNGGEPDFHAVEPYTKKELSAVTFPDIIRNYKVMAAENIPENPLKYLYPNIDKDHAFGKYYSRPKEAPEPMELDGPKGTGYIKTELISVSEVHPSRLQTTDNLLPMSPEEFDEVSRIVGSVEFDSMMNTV

[2] = target: Signal transducer and activator of transcription 3 (Homo sapiens) (UniProt P40763); test: Inhibition of STAT3 phosphorylation in HEL cells at 1 uM pretreated with MG132 followed by compound addition and measured after 24 hrs by Western blotting analysis; type: cell-based
[3] = target: T1, Signal transducer and activator of transcription 1-alpha/beta (Homo sapiens); test: Inhibition of STAT1 phosphorylation in HEL cells at 1 uM incubated for 24 hrs by Western blotting analysis; type: cell-based
[4] = target: Signal transducer and activator of transcription 3 (Homo sapiens) (UniProt P40763); test: Inhibition of STAT3 phosphorylation in HEL cells at 1 uM incubated for 24 hrs by Western blotting analysis; type: cell-based
[5] = target: Signal transducer and activator of transcription 3 (Homo sapiens) (UniProt P40763); test: Inhibition of STAT3 phosphorylation in HEL cells at 1 uM pretreated with momelotinib followed by compound addition and measured after 24 hrs by Western blotting analysis; type: cell-based
[6] = target: T1, Signal transducer and activator of transcription 1-alpha/beta (Homo sapiens); test: Inhibition of STAT1 phosphorylation in HEL cells at 1 uM pretreated with MG132 followed by compound addition and measured after 24 hrs by Western blotting analysis; type: cell-based

Signal transducer and activator of transcription 3 (Homo sapiens), sequence (P40763 whole entry): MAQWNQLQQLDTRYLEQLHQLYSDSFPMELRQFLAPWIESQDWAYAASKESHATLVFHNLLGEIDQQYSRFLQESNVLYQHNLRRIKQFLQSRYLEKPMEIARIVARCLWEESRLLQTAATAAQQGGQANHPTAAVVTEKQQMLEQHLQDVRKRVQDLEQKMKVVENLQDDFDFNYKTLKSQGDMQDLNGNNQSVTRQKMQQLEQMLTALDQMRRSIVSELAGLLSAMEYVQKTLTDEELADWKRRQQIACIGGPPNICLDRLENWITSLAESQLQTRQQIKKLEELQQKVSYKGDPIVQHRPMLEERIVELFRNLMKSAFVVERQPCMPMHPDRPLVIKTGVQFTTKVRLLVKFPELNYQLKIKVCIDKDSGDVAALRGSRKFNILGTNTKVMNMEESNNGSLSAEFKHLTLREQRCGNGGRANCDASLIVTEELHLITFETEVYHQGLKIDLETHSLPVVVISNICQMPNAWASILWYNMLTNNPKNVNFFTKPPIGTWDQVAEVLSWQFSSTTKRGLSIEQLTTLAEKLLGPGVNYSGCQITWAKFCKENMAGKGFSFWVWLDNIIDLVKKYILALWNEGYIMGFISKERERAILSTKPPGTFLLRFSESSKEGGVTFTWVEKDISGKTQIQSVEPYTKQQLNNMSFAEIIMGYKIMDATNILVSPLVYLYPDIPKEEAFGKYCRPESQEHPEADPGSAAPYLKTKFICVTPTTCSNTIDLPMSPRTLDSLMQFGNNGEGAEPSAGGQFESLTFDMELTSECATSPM

Compound | pIC50 (K562) | pIC50 (THP-1) | pIC50 (HEL) | inhibition [1] | inhibition [2] | inhibition [3] | inhibition [4] | inhibition [5] | inhibition [6]
N#CCNC(=O)c1ccc(-c2ccnc(Nc3ccc(N4CCC(C(=O)NCCCCCC#Cc5cccc6c5C(=O)N(C5CCC(=O)NC5=O)C6=O)CC4)cc3)n2)cc1 (stereo not given) | < 4.30 | < 4.30 | < 4.30 |  |  |  |  |  | 
N#CCNC(=O)c1ccc(-c2ccnc(Nc3ccc(N4CCC(C(=O)NCCCCC#Cc5cccc6c5C(=O)N(C5CCC(=O)NC5=O)C6=O)CC4)cc3)n2)cc1 (stereo not given) | 5.21 | 4.98 | 5.89 | inactive | inactive | Active | Active | inactive | inactive
N#CCNC(=O)c1ccc(-c2ccnc(Nc3ccc(N4CCC(C(=O)NCCCC#Cc5cccc6c5C(=O)N(C5CCC(=O)NC5=O)C6=O)CC4)cc3)n2)cc1 (stereo not given) | 4.35 | < 4.30 | 4.43 |  |  |  |  |  | 
